Source: patent US9949980B2, “Drugs to prevent HPV infection” (Wisconsin Alumni Research Foundation, priority 2008, dated 2018)
“Also recorded” adds a separate entry of the source.

What was measured:
HPV16 virus = assay: Wild type HPV16 infection in 293T cells, early viral gene expression by real time PCR; type: cell-based; settings: 5 to 10 μM (FIG. 3: 10 μM), 48 hours post infection
Protocol: FIG. 3. Inhibition of infection by HPV 16 virus. Shown is the relative efficiency of infection by HPV16 virus in 293T cells as scored by quantifying early viral transcription using real time PCR for E2 (dark grey bars), E5 (white bars) and E7 (light grey bars) containing mRNAs at 48 hours post-infection in the absence (DMSO—vehicle only, values set at 100%) or the presence of the indicated compound (10 μM concentration). Data points shown are the average of triplicate sample values. The dotted line indicates the normalized value for no drug (set as 100% infection value).
The 21 selected compounds were also tested for their ability to inhibit infection by bonafide HPV16 in 293T cells by measuring early viral gene expression by real time PCR at 48 hours post infection (FIG. 3) after treatment of the cell with 5 to 10 μM of each compound. Consistently with the data of reporter gene assays, HPV early gene expression was inhibited by Compounds 4, 13, 14, 18 and 20. Given the large differences in IC50 and CD50, and the reproducible capacity to inhibit infection by HPV16 pseudovirus and HPV16 virus in different cell types, Compounds 13 and 14 were selected for further analysis.
After 2 day infection, total RNA was isolated from infected cell lysate and treated with DNase I (Promega) as previously. (Pyeon, D. et al., Establishment of human papillomavirus infection requires cell cycle progression, PLos Pathog. 2009 February; 5(2):e1000318. Epub 2009 Feb. 27). Complementary DNA (cDNA) was synthesized from the normalized total RNA with the SuperScript cDNA synthesis kit (Invitrogen). All oligonucleotide primers (0.5 μM) for PCR are previously published (Pyeon D. et al., Production of infectious human papillomavirus independently of viral replication and epithelial cell differentiation, Proc. Nat'l Acad. Sci. USA, 2005 Jun. 28; 102(26):9311-6, Epub 2005 Jun. 15) or listed in Table 2.
Conventional PCR was performed with Taq DNA polymerase (Promega) and the following cycle: denaturation at 94° C. for 5 min, 42 cycles of 94° C. for 30 sec., 55° C. for 1 min., and 72° C. for 1 min., followed by extension at 72° C. for 7 min. Final products were analyzed by 1% agarose gel electrophoresis and ethidium bromide staining. Quantitative RT-PCR was performed using QuantiTect SYBR green PCR kit (Qiagen) with the following cycle: denaturation at 95° C. for 5 min. and 40 cycles of 95° C. for 30 sec., 55° C. for 30 sec., and 72° C. for 30 sec.

[1] = test system: HPV16, HPV11, and HPV31 pseudovirus; assay: Infection by HPV16, HPV11 and HPV31 pseudovirus in HaCaT cells (all genotypes together); type: cell-based, HPV; settings: for IC50 in words for all three HPV pseudovirus infections: HPV16, HPV11, HPV31, 0.1 to 100 μM; for Concentration that completely inhibited all the tested genotypes: HPV16, HPV11, HPV31 pseudovirus
Protocol: FIG. 4. Compounds 13 and 14 can inhibit infection by multiple anogenital HPVs. Shown are results from infection experiments in HaCaT cells monitoring the efficiency of infection by HPV16, HPV11 and HPV31 pseudovirus carrying the firefly luciferase gene in the absence (0 μM, vehicle only) or increasing concentrations (0.1 to 100 μM) of Compound 13 or 14. The Y axis is the relative efficiency of infection (squares) or cell viability (circles) as a function of drug concentration (X axis). All data points represent the average of values from triplicate samples. […] Data for HPV16 is the also plotted in FIG. 2.
Infection experiments in human keratinocyte cell line, HaCaT, monitoring the efficiency of infection by HPV16, HPV11, and HPV31 pseudovirus carrying the firefly luciferase gene were conducted in the absence or increasing concentrations (0.1 to 100 μM) of Compounds 13 and 14 (see FIG. 4).
In vitro data were collected at 3 μM concentration. […] A human treatment dosage is preferably between 0.1 μM and 100 mM, more preferably between 1 and 10 mM.
At 4 hours prior to exposure of cell to pseudoviruses, compounds were added to plates in 1% DMSO final concentration at the indicated amounts. Four hours later, 10 multiplicity of infection (M.O.I.) units of HPV16 pseudovirus carrying the plasmid LucF was added to the cells. 72 hours later, cells were lysed and luciferase assays performed using the Luciferase Assay System (Promega Cat. #E1501). For infection studies with HPV11 and HPV31 pseudoviruses, 200 virus genome equivalents (vge) of virus per cell were used. Cell viability was assessed in parallel plates by Luminescent Cell Viability Assay (Promega Cat. #G7571).

in vitro [2] = settings: human
in vitro [3] = settings: human; remark: listed apart in the source
Protocol: The protocol for the secondary screen was identical to that of the primary screen with the exception that all volumes were scaled up by a factor of four. RL activity was measured using the Renilla Luciferase Assay System (Promega).

SMILES | Inhibition of HPV16 early gene expression (E2, E5, E7 mRNAs) (HPV16 virus) | IC50 in words for all three HPV pseudovirus infections [1] | Concentration that completely inhibited all the tested genotypes [1] | viability at 52 h, 3.3 μM (in vitro [2]) | viability at 52 h, 3.3 μM (in vitro [3])
CCCn1c2ccccc2c2nnc(SC(CC)C(=O)Nc3ccc(Cl)cn3)nc21 (centres unmarked) [Compound 13, N-(5-chloro-2-pyridinyl)-2-[(5-propyl-5H-[1,2,4]triazino[5,6-b]indol-3-yl)thio]butanamide] | reproducible and significant inhibition; also recorded: inhibited | Submicromolar | 10 µM |  | 
Cc1cc(C(c2ccc(F)cc2)c2cc(C)c(NC(=O)c3ccccc3)c(C)c2)cc(C)c1NC(=O)c1ccccc1 [Compound 14, N,N′[[(4-fluorophenyl)methylene]bis(2,6-dimethyl-4,1-phenylene)]dibenzamide] | reproducible and significant inhibition; also recorded: inhibited | Submicromolar | 4 µM | 106% | 106%
